Assay results published in ChEMBL document CHEMBL3046251, “3D-QSAR CoMFA and CoMSIA studies for design of potent human steroid 5-reductase inhibitors” (Med Chem Res, 2013).

Target: T1, 3-oxo-5-alpha-steroid 4-dehydrogenase 2 (Homo sapiens, UniProt P31213)
T1 sequence (P31213 whole entry): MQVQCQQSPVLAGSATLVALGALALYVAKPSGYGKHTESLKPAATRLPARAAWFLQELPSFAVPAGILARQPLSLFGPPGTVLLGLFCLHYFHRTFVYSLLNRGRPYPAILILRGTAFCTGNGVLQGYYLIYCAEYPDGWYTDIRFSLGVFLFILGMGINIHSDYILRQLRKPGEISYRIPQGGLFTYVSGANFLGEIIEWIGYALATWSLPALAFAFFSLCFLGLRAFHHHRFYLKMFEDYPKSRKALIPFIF
Assay: Inhibition of Homo sapiens (human) Steroid 5-alpha-reductase type 2

| SMILES | IC50 |
| --- | --- |
| CC(C)(C)c1ccc(-c2ccc(C(F)(F)F)cc2NC(=O)[C@H]2CC[C@H]3[C@@H]4CNC5=CC(=O)CC[C@]5(C)[C@H]4CC[C@]23C)cc1 | 0.5 nM |
| CCCN1C[C@H]2[C@@H]3CC[C@H](C(=O)NC(c4ccccc4)c4ccccc4)[C@@]3(C)CC[C@@H]2[C@@]2(C)C=CC(=O)C=C12 | 1.3 nM |
| C[C@]12CC[C@H]3[C@@H](CNC4=CC(=O)CC[C@@]43C)[C@@H]1CC[C@@H]2C(=O)NN(c1ccccc1)c1ccccc1 | 0.23 nM |
| CN1C[C@H]2[C@@H]3CC[C@H](C(=O)NC(c4ccccc4)c4ccccc4)[C@@]3(C)CC[C@@H]2[C@@]2(C)CCC(=O)C=C12 | 0.2 nM |
| CN1C[C@H]2[C@@H]3CC[C@H](C(=O)NC4C5CC6CC(C5)CC4C6)[C@@]3(C)CC[C@@H]2[C@@]2(C)CCC(=O)C=C12 (some centres undefined) | 0.3 nM |
| C[C@]12CC[C@H]3[C@@H](CNC4=CC(=O)CC[C@@]43C)[C@@H]1CC[C@@H]2C(=O)Nc1cc(C(F)(F)F)cc(C(F)(F)F)c1 | 0.2 nM |
| C[C@]12CC[C@H]3[C@@H](CNC4=CC(=O)CC[C@@]43C)[C@@H]1CC[C@@H]2C(=O)NC(c1ccccc1)(c1ccccc1)c1ccccc1 | 0.09 nM |
| CC(C)(C)NC(=O)[C@H]1CC[C@H]2[C@@H]3CNC4=CC(=O)C=C[C@]4(C)[C@H]3CC[C@]12C | 1.8 nM |
| CC1=C2NC[C@H]3[C@@H]4CC[C@H](C(=O)NC(C)(C)C)[C@@]4(C)CC[C@@H]3[C@@]2(C)CCC1=O | 1.4 nM |
| C[C@]12CC[C@H]3[C@@H](CNC4=CC(=O)CC[C@@]43C)[C@@H]1CC[C@@H]2C(=O)NC(c1ccccc1)c1ccccc1 | 0.09 nM |
| C[C@]12CC[C@H]3[C@@H](CNC4=CC(=O)CC[C@@]43C)[C@@H]1CC[C@@H]2C(=O)NC(c1ccc(Cl)cc1)c1ccc(Cl)cc1 | 0.12 nM |
| CN1C[C@H]2[C@@H]3CC[C@H](C(=O)NC(C)(C)C)[C@@]3(C)CC[C@@H]2[C@@]2(C)C=CC(=O)C=C12 | 6.7 nM |
| C[C@]12CC[C@H]3[C@@H](CNC4=CC(=O)CC[C@@]43C)[C@@H]1CC[C@@H]2C(=O)NC(C1CCCCC1)C1CCCCC1 | 0.4 nM |

Next, values leading:

| IC50 | SMILES |
| --- | --- |
| 8.1 nM | CCN(CC)C(=O)[C@H]1CC[C@H]2[C@@H]3CNC4=C(C)C(=O)C=C[C@]4(C)[C@H]3CC[C@]12C |
| 1.5 nM | CCN(CC)C(=O)[C@H]1CC[C@H]2[C@@H]3CNC4=CC(=O)CC[C@]4(C)[C@H]3CC[C@]12C |
| 2.4 nM | CON(C)C(=O)[C@H]1CC[C@H]2[C@@H]3CNC4=CC(=O)CC[C@]4(C)[C@H]3CC[C@]12C |
| 5.7 nM | CCN(CC)C(=O)[C@H]1CC[C@H]2[C@@H]3CN(C)C4=CC(=O)C=C[C@]4(C)[C@H]3CC[C@]12C |
| 4.9 nM | CCN(CC)C(=O)[C@H]1CC[C@H]2[C@@H]3CN(C(C)C)C4=CC(=O)CC[C@]4(C)[C@H]3CC[C@]12C |
| 0.04 nM | C[C@]12CC[C@H]3[C@@H](CNC4=CC(=O)CC[C@@]43C)[C@@H]1CC[C@@H]2C(=O)OC1C2CC3CC(C2)CC1C3 (some centres undefined) |
| 0.5 nM | CC(C)c1cc(C(C)C)c(C(=O)[C@H]2CC[C@H]3[C@@H]4CNC5=CC(=O)CC[C@]5(C)[C@H]4CC[C@]23C)c(C(C)C)c1 |
| 3.5 nM | CCN(CC)C(=O)[C@H]1CC[C@H]2[C@@H]3CNC4=CC(=O)C=C[C@]4(C)[C@H]3CC[C@]12C |
| 0.2 nM | CC(C)(C)c1ccccc1NC(=O)[C@H]1CC[C@H]2[C@@H]3CNC4=CC(=O)CC[C@]4(C)[C@H]3CC[C@]12C |
| 0.08 nM | CC(C)CC(=O)[C@H]1CC[C@H]2[C@@H]3CNC4=CC(=O)CC[C@]4(C)[C@H]3CC[C@]12C |
| 7.1 nM | C[C@]12CC[C@H]3[C@@H](CNC4=CC(=O)CC[C@@]43C)[C@@H]1CC[C@@H]2C(=O)N1CCOCC1 |
| 2.8 nM | CCN(C)C(=O)[C@H]1CC[C@H]2[C@@H]3CNC4=CC(=O)CC[C@]4(C)[C@H]3CC[C@]12C |
| 42 nM | CCN(CC)C(=O)[C@H]1CC[C@H]2[C@@H]3CN(C#N)C4=CC(=O)CC[C@]4(C)[C@H]3CC[C@]12C |
| 2.3 nM | CCN(CC)C(=O)[C@H]1CC[C@H]2[C@@H]3CN(C)C4=CC(=O)CC[C@]4(C)[C@H]3CC[C@]12C |
| 0.36 nM | CC(C)N(C(=O)[C@H]1CC[C@H]2[C@@H]3CNC4=CC(=O)CC[C@]4(C)[C@H]3CC[C@]12C)C(C)C |
| 2.1 nM | CCN(CC)C(=O)[C@H]1CC[C@H]2[C@@H]3CNC4=C(Br)C(=O)CC[C@]4(C)[C@H]3CC[C@]12C |
